Experiments:
VCaP cells = assay: Cellular growth inhibition assay for VCaP cells, CellTiter-Glo; type: cell-based, human; details: 72 hours treatment, CellTiter-Glo 2.0
Procedure, shortened: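 GI50 values come from four-parameter curve fits of luminescence data normalized to a zero baseline. Compound, in medium with 0.5% DMSO, was added one day after plating and left for 72 h before CellTiter-Glo 2.0 addition.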

[1] = Cellular growth inhibition, T-Rex 293 SC cells with doxycycline (progesterone receptor isoform B induced), Example 45; type: cell-based; details: progesterone receptor isoform B induced with 10 ng/mL doxycycline, 72 hours, CellTiter-Glo 2.0, Table 11

GI50 (VCaP cells) [µM] | GI50 (VCaP cells; Homo sapiens, VCaP, 72 h) [µM] | SMILES | GI50 [1] [µM]
< 0.5 |  | Cc1sc2c(c1C)C(c1ccc(CC3CC4(CCN(c5ccc(C(=O)N[C@H]6C(C)(C)[C@H](Oc7ccc(C#N)c(Cl)c7)C6(C)C)cn5)CC4)C3)cc1)=N[C@@H](Cc1ncco1)c1nnc(C)n1-2 [Compound I-143] | < 0.5
 | < 0.5 | Cc1sc2c(c1C)C(c1ccc(N3CC(N4CCN(c5ncc(C(=O)N[C@H]6C(C)(C)[C@H](Oc7ccc(C#N)c(Cl)c7)C6(C)C)cn5)CC4)C3)cc1)=NC(Cc1ncco1)c1nnc(C)n1-2 (stereo partly shown) [Compound I-208] | < 0.5
